Read-outs that look alike come from different tables or passages of the source.
Assay: Solubility of compound represented by formula I in different solvents
Assay type: physicochemical
Conditions: for solubility at 30 min: thermodynamic from solid, read-out: Approximate Solubility
Protocol: Referring to tests under the General Notices, Volume II, Chinese Pharmacopoeia 2010, excessive compounds represented by formula I which were grinded to fine powder were weighed and transferred in a certain amount of solvent (25° C.±2° C.), and shaken vigorously for 30 s every 5 min. The dissolution of the drug was observed within 30 min. Then the solution was filtered, the initial filtrate was discarded, and the concentration of the successive filtrate was tested. The solubility was calculated.

- Solubility (descriptive term) (Acetone): slightly soluble
- Solubility (descriptive term) (Anhydrous Ethanol): very slightly soluble
- Solubility (descriptive term) (Tetrahydrofuran): slightly soluble
- solubility at 30 min (aqueous buffer, Acetate Buffer pH 4.5, 25° C.±2° C.): 0.85 µg/mL
- solubility at 30 min (aqueous buffer, Phosphate Buffer pH 6.8, 25° C.±2° C.): 0.59 µg/mL
- solubility at 30 min (aqueous with cosolvent or surfactant or cyclodextrin, 5% Polysorbate 80 Aqueous Solution, 25° C.±2° C.): 19.5 µg/mL
- Solubility (descriptive term) (conventional aqueous solvents): practically insoluble
- solubility at 30 min (organic solvent or mixture, Acetone, 25° C.±2° C.): 4960 µg/mL
- solubility at 30 min (organic solvent or mixture, Anhydrous Ethanol, 25° C.±2° C.): 458 µg/mL
- solubility at 30 min (organic solvent or mixture, Tetrahydrofuran, 25° C.±2° C.): 8550 µg/mL
- solubility at 30 min (simulated gastric fluid, 0.1 mol/L Hydrochloric Acid, 25° C.±2° C.): 0.78 µg/mL
Structure (SMILES): O=C(c1cc(Cc2n[nH]c(=O)c3ccccc23)ccc1F)N1CCn2nc(C(F)(F)F)nc2C1 [Compound represented by formula I]

From patent US12318385B2, “Pharmaceutical composition comprising PARP inhibitors” (Jiangsu Hengrui Medicine CO., LTD., priority 2018, dated 2025)
